For assay [1], the system named is Sweetpotato Whitefly-Crawler (WF) (Bemisia tabaci) (BEMITA). Put plainly: Insecticidal test for Sweetpotato Whitefly-crawler (WF) in foliar spray assay on cotton plants. The format is in vivo. To be noted: 216 h, 200 ppm foliar spray on cotton plants, graded after 9 days, Abbott corrected % control, read-out: WF % Control (or Mortality) rating. On the procedure:
Insecticidal Test for Sweetpotato Whitefly-Crawler (WF) (Bemisia tabaci) (BEMITA) in Foliar Spray Assay
Cotton plants (Gossypium hirsutum) grown in 3-inch pots, with 1 small (4-5 cm) true leaves, were used as test substrate. The plants were infested with 200-400 whitefly eggs 4-5 days prior to chemical application. Four pots with individual plants were used for each treatment. Test compounds (2 mg) were dissolved in 1 mL of acetone solvent, forming stock solutions of 2000 ppm test compound. The stock solutions were diluted 10× with 0.025% Tween 20 in H2O (diluents) to obtain the solution at 200 ppm test compound. A hand-held aspirator-type sprayer was used for spraying a solution to both sides of cotton leaves until runoff. Reference plants (solvent check) were sprayed with the diluent only containing 10% by volume of acetone solvent. Treated plants were held in a holding room for 9 days at approximately 25° C. and ambient relative humidity (RH) prior to grading. Evaluation was conducted by counting the number of live 3-4 nymph stage per plant under a microscope. Percent control was measured by using Abbott's correction formula (W. S. Abbott, “A Method of Computing the Effectiveness of an Insecticide,” J. Econ. Entomol. 18 (1925), pp. 265-267) as follows. Corrected % Control=100*(X−Y)/X
X=No. of live nymphs on solvent check plants and
Y=No. of live nymphs on treated plants.
Biological Data for Green Peach Aphid (MYZUPE) and Sweetpotato Whitefly-crawler (WF) (BEMITA)” (see Table section).
(§1) The mortality efficiency of the pesticidal compounds against GPA and WF insects was determined after treatment.

Assay [2] concerns Green Peach Aphid (Myzus persicae) (GPA) (MYZUPE). Put plainly: Bioassay for Green Peach Aphid (GPA) foliar spray on cabbage seedlings. To be noted: 72 h, 200 ppm foliar spray on cabbage seedlings, graded after three days, Abbott corrected % control, read-out: GPA % Control (or Mortality) rating. In kind it is in vivo. On the procedure: Bioassay for Green Peach Aphid (Myzus persicae) (GPA) (MYZUPE)
Cabbage seedlings grown in 3-inch pots, with 2-3 small (3-5 cm) true leaves, were used as test substrate. The seedlings were infested with 20-50 GPA (wingless adult and nymph stages) one day prior to chemical application. Four pots with individual seedlings were used for each treatment. Test compounds (2 mg) were dissolved in 2 mL of acetone/methanol (1:1) solvent, forming stock solutions of 1000 ppm test compound. The stock solutions were diluted 5× with 0.025% Tween 20 in H2O to obtain the solution at 200 ppm test compound. A hand-held aspirator-type sprayer was used for spraying a solution to both sides of cabbage leaves until runoff Reference plants (solvent check) were sprayed with the diluent only containing 20% by volume of acetone/methanol (1:1) solvent. Treated plants were held in a holding room for three days at approximately 25° C. and ambient relative humidity (RH) prior to grading. Evaluation was conducted by counting the number of live aphids per plant under a microscope. Percent control was measured by using Abbott's correction formula (W. S. Abbott, “A Method of Computing the Effectiveness of an Insecticide,” J. Econ. Entomol. 18 (1925), pp. 265-267) as follows Corrected % Control=100*(X−Y)/X
X=No. of live aphids on solvent check plants and
Y=No. of live aphids on treated plants.
Biological Data for Green Peach Aphid (GPA) (MYZUPE) and Sweetpotato Whitefly-crawler (WF) (BEMITA)” (see Table section).
as §1

For the molecule `Cc1ccc(-c2cn(-c3cccnc3)nn2)nc1` [Compound F4, 5-Methyl-2-[1-(pyridin-3-yl)-1H-1,2,3-triazol-4-yl]pyridine], the mortality at 200 ppm in assay [1] and in assay [2] was 80 to 100% in each case.

With `FC(F)(F)c1ccc(-c2cn(-c3cccnc3)nn2)nc1` [Compound F8, 2-[1-(Pyridin-3-yl)-1H-1,2,3-triazol-4-yl]-5-(trifluoromethyl)pyridine], the mortality at 200 ppm in assay [1] and in assay [2] was 80 to 100% in each case.

For the molecule `FC(F)(F)c1cccc(-c2cn(-c3cccnc3)nn2)c1` [Compound F13], the mortality at 200 ppm in assay [1] is below 0%; in assay [2], 80 to 100%.

In the case of `FC(F)(F)c1ccc(-c2cn(-c3cccnc3)nn2)cn1` [Compound F2, 5-[1-(Pyridin-3-yl)-1H-1,2,3-triazol-4-yl]-2-(trifluoromethyl)pyridine], the mortality at 200 ppm in assay [1] is 0 to 80%; in assay [2], 80 to 100%.

Consider `Cc1cccc(-c2cn(-c3cccnc3)nn2)n1` [Compound F12, 2-methyl-6-(1-(pyridin-3-yl)-1H-1,2,3-triazol-4-yl)pyridine], for which the mortality at 200 ppm in assay [1] and in assay [2] was 80 to 100% each time.

In the case of `Clc1cccc(-c2cn(-c3cccnc3)nn2)n1` [Compound F10, 2-Chloro-6-[1-(pyridin-3-yl)-1H-1,2,3-triazol-4-yl]pyridine], the mortality at 200 ppm in assay [1] fell in the range of 0 to 80%; in assay [2] it was 80 to 100%.

Turning to `Clc1cccc(-c2cn(-c3cccnc3)nn2)c1` [Compound F11], the mortality at 200 ppm was below 0% in assay [1] and 0 to 80% in assay [2].

`FC(F)(F)c1cccc(-c2cn(-c3cccnc3)nn2)n1` [Compound F7, 2-[1-(pyridin-3-yl)-1H-1,2,3-triazol-4-yl]-6-(trifluoromethyl) pyridine]: the mortality at 200 ppm in assay [1] and in assay [2] was 80 to 100% throughout.

On to `Clc1ccccc1-c1cn(-c2cccnc2)nn1` [Compound F1], for which the mortality at 200 ppm in assay [1] and in assay [2] was 0 to 80% in each case.

Regarding `CSc1cccc(-c2cn(-c3cccnc3)nn2)c1` [Compound F3], the values for the mortality at 200 ppm in assay [1] and in assay [2] were below 0% and 80 to 100%, respectively.

In the case of `Brc1cccc(-c2cn(-c3cccnc3)nn2)n1` [Compound F9, 2-Bromo-6-[1-(pyridin-3-yl)-1H-1,2,3-triazol-4-yl]pyridine], the mortality at 200 ppm in assay [1] was 0 to 80%; in assay [2], 80 to 100%.

Take `FC(F)(F)Oc1cccc(-c2cn(-c3cccnc3)nn2)c1` [Compound F6, 3-(4-(3-(trifluoromethoxy)phenyl)-1H-1,2,3-triazol-1-yl)pyridine]: the mortality at 200 ppm in assay [1] fell in the range of 0 to 80%; in assay [2] it was 80 to 100%.

For the molecule `COc1cccc(-c2cn(-c3cccnc3)nn2)n1` [Compound F5, 2-Methoxy-6-[1-(pyridin-3-yl)-1H-1,2,3-triazol-4-yl]pyridine], the mortality at 200 ppm in assay [1] lay within 0 to 80%; in assay [2], 80 to 100%.

For the origin of these results see patent US9491944B2, “Pesticidal compositions and related methods” (DOW AGROSCIENCES LLC, priority 2013, dated 2016).
